The values below are quoted from earlier work in US20050215535A1, “Sequential SPRM/progestin treatment” (priority 2004, published 2005).

The target in one series is T1, progesterone receptor (Oryctolagus cuniculus, UniProt P06186).
T1 construct: SPRMs score lower than progesterone in the McPhail bioassay in rabbits; from tissue; host or cells: living rabbit (in vivo; the endometrium as read-out tissue is own knowledge of the McPhail test)
T1 sequence (P06186 1-930): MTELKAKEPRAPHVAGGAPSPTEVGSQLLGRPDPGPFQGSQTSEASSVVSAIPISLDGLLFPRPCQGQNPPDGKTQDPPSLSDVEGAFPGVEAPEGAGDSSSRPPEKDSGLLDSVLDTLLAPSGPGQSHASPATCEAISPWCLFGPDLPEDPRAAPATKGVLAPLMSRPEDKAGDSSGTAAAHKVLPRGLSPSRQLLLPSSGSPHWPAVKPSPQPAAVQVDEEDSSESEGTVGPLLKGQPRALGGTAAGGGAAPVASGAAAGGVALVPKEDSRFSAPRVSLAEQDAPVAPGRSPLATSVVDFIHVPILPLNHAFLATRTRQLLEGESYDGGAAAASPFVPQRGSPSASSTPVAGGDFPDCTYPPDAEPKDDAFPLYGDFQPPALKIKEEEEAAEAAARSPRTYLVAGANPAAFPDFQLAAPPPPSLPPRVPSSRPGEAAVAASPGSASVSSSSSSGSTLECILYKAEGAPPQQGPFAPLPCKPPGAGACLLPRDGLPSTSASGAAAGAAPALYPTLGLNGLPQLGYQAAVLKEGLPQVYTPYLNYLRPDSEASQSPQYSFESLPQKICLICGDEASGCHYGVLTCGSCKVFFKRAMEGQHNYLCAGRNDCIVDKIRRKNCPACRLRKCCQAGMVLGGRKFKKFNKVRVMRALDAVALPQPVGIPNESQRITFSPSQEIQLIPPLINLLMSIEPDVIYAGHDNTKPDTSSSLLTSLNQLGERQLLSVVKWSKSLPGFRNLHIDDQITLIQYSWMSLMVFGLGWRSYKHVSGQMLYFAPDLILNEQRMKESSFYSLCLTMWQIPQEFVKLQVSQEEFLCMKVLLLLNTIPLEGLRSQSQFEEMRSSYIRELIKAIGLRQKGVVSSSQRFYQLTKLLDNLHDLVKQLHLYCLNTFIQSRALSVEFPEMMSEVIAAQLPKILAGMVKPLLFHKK
As to conditions: rabbit model; for McPhail score: scale of 0-4.

Some results are limits rather than exact numbers.

Consider `COC[C@]1(OC)CC[C@H]2[C@@H]3CCC4=CC(=O)CCC4=C3[C@@H](c3ccc(/C=N/O)cc3)C[C@@]21C` [J867], for which, in the series on premenopausal women (all subjects), the “time to withdrawal bleeding (start of spontaneous menstrual cycle) after stopping the SPRM treatment” value is listed as “up to 90 days”. Further, the “resumption of menstruation after cessation of treatment” value in the series with premenopausal women (majority of subjects) is reported as ≤ 30 days.

On to `CC(=O)[C@H]1CC[C@H]2[C@@H]3CCC4=CC(=O)CC[C@]4(C)[C@H]3CC[C@]12C` [progesterone], for which the McPhail score on progesterone receptor is on record as 4.

On to `CC#C[C@]1(O)CC[C@H]2[C@@H]3CCC4=CC(=O)CCC4=C3[C@@H](c3ccc(N(C)C)cc3)C[C@@]21C` [RU486, mifepristone], for which, on progesterone receptor, the “agonist activity in the McPhail test” value is recorded as “do not show any agonist activity” and the McPhail score entry is recorded as “less than 0.5”.

For `CN(C)c1ccc([C@H]2C[C@]3(C)[C@@H](CC[C@]3(O)CCCO)[C@@H]3CCC4=CC(=O)CCC4=C32)cc1` [onapristone], the “agonist activity in the McPhail test” value on progesterone receptor is recorded as “do not show any agonist activity”.
